Results: PubChem BioAssay AID1963875 (Molecular Pharmacology Branch, DTP, NCI, 2024)

System: KRAS-mutant PDC complex spheroid viability
Assay: Anticancer human tumor 186277-243-T-J2-PDC patient-derived colon adenocarcinoma cell line growth inhibition [KRAS2]
Conditions: for IC50: curve of first compound; for viability, T/C: stronger effect = lower value
Procedure, shortened: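 KRAS-mutant tumor cells were grown as spheroids with HUVEC endothelial cells and human MSCs as stroma. Targeted agents were tested alone and with KRAS pathway inhibitors. Doses started at or near clinical Cmax, or 10 microM, descending half-log.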

[1] = second compound 0.1 µM, first compound 0.000316 µM
[2] = second compound 0.1 µM, first compound 0.001 µM
[3] = second compound 0.1 µM, first compound 0.00316 µM
[4] = second compound 0.1 µM, first compound 0.01 µM
[5] = second compound 0.1 µM, first compound 0.0316 µM
[6] = second compound 0.316 µM, first compound 0.000316 µM
[7] = second compound 0.316 µM, first compound 0.001 µM
[8] = second compound 0.316 µM, first compound 0.00316 µM
[9] = second compound 0.316 µM, first compound 0.01 µM
[10] = second compound 0.316 µM, first compound 0.0316 µM
[11] = second compound 1 µM, first compound 0.000316 µM
[12] = second compound 1 µM, first compound 0.001 µM
[13] = second compound 1 µM, first compound 0.00316 µM
[14] = second compound 1 µM, first compound 0.01 µM
[15] = second compound 1 µM, first compound 0.0316 µM
[16] = second compound 3.16 µM, first compound 0.000316 µM
[17] = second compound 3.16 µM, first compound 0.001 µM
[18] = second compound 3.16 µM, first compound 0.00316 µM
[19] = second compound 3.16 µM, first compound 0.01 µM
[20] = second compound 3.16 µM, first compound 0.0316 µM
[21] = second compound 10 µM, first compound 0.000316 µM
[22] = second compound 10 µM, first compound 0.001 µM
[23] = second compound 10 µM, first compound 0.00316 µM
[24] = second compound 10 µM, first compound 0.01 µM
[25] = second compound 10 µM, first compound 0.0316 µM
[26] = second compound 0.1 µM, first compound 0.1 µM
[27] = second compound 0.316 µM, first compound 0.1 µM
[28] = second compound 1 µM, first compound 0.1 µM
[29] = second compound 3.16 µM, first compound 0.1 µM
[30] = second compound 10 µM, first compound 0.1 µM
[31] = second compound 0.1 µM, first compound 0.316 µM
[32] = second compound 0.1 µM, first compound 1 µM
[33] = second compound 0.1 µM, first compound 3.16 µM
[34] = second compound 0.1 µM, first compound 10 µM
[35] = second compound 0.316 µM, first compound 0.316 µM
[36] = second compound 0.316 µM, first compound 1 µM
[37] = second compound 0.316 µM, first compound 3.16 µM
[38] = second compound 0.316 µM, first compound 10 µM
[39] = second compound 1 µM, first compound 0.316 µM
[40] = second compound 1 µM, first compound 1 µM
[41] = second compound 1 µM, first compound 3.16 µM
[42] = second compound 1 µM, first compound 10 µM
[43] = second compound 3.16 µM, first compound 0.316 µM
[44] = second compound 3.16 µM, first compound 1 µM
[45] = second compound 3.16 µM, first compound 3.16 µM
[46] = second compound 3.16 µM, first compound 10 µM
[47] = second compound 10 µM, first compound 0.316 µM
[48] = second compound 10 µM, first compound 1 µM
[49] = second compound 10 µM, first compound 3.16 µM
[50] = second compound 10 µM, first compound 10 µM
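Wherever viability, T/C is given: viability read after seven days of compound exposure; 100% = DMSO vehicle-treated spheroids so lower means less viable.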

For `CC(=O)Nc1cccc(-n2c(=O)n(C3CC3)c(=O)c3c(Nc4ccc(I)cc4F)n(C)c(=O)c(C)c32)c1` + COc1cc2nc(C)nc(NC(C)c3cc(N)cc(C(F)(F)F)c3)c2cc1OC1CCOC1, the IC50 (second compound 0.1 µM) was 0.458 nM, the IC50 (second compound 0.316 µM) was 0.343 nM and the IC50 (second compound 1 µM) was 0.298 nM. The IC50 (second compound 3.16 µM) was 0.226 nM, the IC50 (second compound 10 µM) was less than 0.1 nM and the viability, T/C (second compound 0.1 µM, first compound 0.0001 µM) was 116%. It also gave a viability, T/C [1] of 68.2%, a viability, T/C [2] of 11.4% and a viability, T/C [3] of 4.55%. For the same compound, the viability, T/C [4] was 1.94%, the viability, T/C [5] was 1.13% and the viability, T/C (second compound 0.316 µM, first compound 0.0001 µM) was 108%. It also gave a viability, T/C [6] of 53%, a viability, T/C [7] of 10.2% and a viability, T/C [8] of 3.15%. For the same compound, the viability, T/C [9] was 2.07%, the viability, T/C [10] was 1.01% and the viability, T/C (second compound 1 µM, first compound 0.0001 µM) was 118%. It also gave a viability, T/C [11] of 46.3%, a viability, T/C [12] of 8.75% and a viability, T/C [13] of 4.43%. It also gave a viability, T/C [14] of 1.55%, a viability, T/C [15] of 1.02% and a viability, T/C (second compound 3.16 µM, first compound 0.0001 µM) of 108%. The viability, T/C [16] was 26%, the viability, T/C [17] was 6.24% and the viability, T/C [18] was 2.83%. For the same compound, the viability, T/C [19] was 1.04%, the viability, T/C [20] was 0.82% and the viability, T/C (second compound 10 µM, first compound 0.0001 µM) was 13.9%. The viability, T/C [21] was 3.04%, the viability, T/C [22] was 1.39% and the viability, T/C [23] was 0.49%. It also gave a viability, T/C [24] of 0.21% and a viability, T/C [25] of 0.23%.
Compound `CN(C)C/C=C/C(=O)Nc1cc2c(Nc3ccc(F)c(Cl)c3)ncnc2cc1O[C@H]1CCOC1` + COc1cc2nc(C)nc(NC(C)c3cc(N)cc(C(F)(F)F)c3)c2cc1OC1CCOC1 has an IC50 (second compound 0.1 µM) greater than 100 nM, an IC50 (second compound 0.316 µM) greater than 100 nM and an IC50 (second compound 1 µM) greater than 100 nM. The IC50 (second compound 3.16 µM) was greater than 100 nM, the IC50 (second compound 10 µM) was greater than 100 nM and the viability, T/C [1] was 102%. It also gave a viability, T/C [2] of 107%, a viability, T/C [3] of 112% and a viability, T/C [4] of 110%. It also gave a viability, T/C [5] of 108%, a viability, T/C [26] of 96.8% and a viability, T/C [6] of 94.3%. The viability, T/C [7] was 105%, the viability, T/C [8] was 106% and the viability, T/C [9] was 115%. It also gave a viability, T/C [10] of 99.2%, a viability, T/C [27] of 89.2% and a viability, T/C [11] of 96.7%. It also gave a viability, T/C [12] of 93.8%, a viability, T/C [13] of 91% and a viability, T/C [14] of 105%. It also gave a viability, T/C [15] of 113%, a viability, T/C [28] of 105% and a viability, T/C [16] of 93.4%. It also gave a viability, T/C [17] of 97.9%, a viability, T/C [18] of 97.4% and a viability, T/C [19] of 100%. For the same compound, the viability, T/C [20] was 84.4%, the viability, T/C [29] was 79.3% and the viability, T/C [21] was 109%. For the same compound, the viability, T/C [22] was 105%, the viability, T/C [23] was 114% and the viability, T/C [24] was 91.2%. It also gave a viability, T/C [25] of 81.4% and a viability, T/C [30] of 61.4%.
In the case of `COC(=O)c1ccc2c(C(=Nc3ccc(N(C)C(=O)CN4CCN(C)CC4)cc3)c3ccccc3)c(O)[nH]c2c1` + COc1cc2nc(C)nc(NC(C)c3cc(N)cc(C(F)(F)F)c3)c2cc1OC1CCOC1, the IC50 (second compound 0.1 µM) is reported as 2190 nM, the IC50 (second compound 0.316 µM) is reported as 2210 nM and the IC50 (second compound 1 µM) is reported as 1970 nM. It also gave an IC50 (second compound 3.16 µM) of 1450 nM, an IC50 (second compound 10 µM) of 463 nM and a viability, T/C [5] of 99%. The viability, T/C [26] was 108%, the viability, T/C [31] was 106% and the viability, T/C [32] was 119%. The viability, T/C [33] was 22.8%, the viability, T/C [34] was 13.4% and the viability, T/C [10] was 87.2%. It also gave a viability, T/C [27] of 102%, a viability, T/C [35] of 100% and a viability, T/C [36] of 104%. For the same compound, the viability, T/C [37] was 28.3%, the viability, T/C [38] was 10.9% and the viability, T/C [15] was 95.6%. For the same compound, the viability, T/C [28] was 98.6%, the viability, T/C [39] was 106% and the viability, T/C [40] was 115%. For the same compound, the viability, T/C [41] was 12.7%, the viability, T/C [42] was 8.29% and the viability, T/C [20] was 96.6%. It also gave a viability, T/C [29] of 94%, a viability, T/C [43] of 114% and a viability, T/C [44] of 72%. The viability, T/C [45] was 5.65%, the viability, T/C [46] was 0.14% and the viability, T/C [25] was 74.5%. For the same compound, the viability, T/C [30] was 81.5%, the viability, T/C [47] was 62.8% and the viability, T/C [48] was 22.1%. It also gave a viability, T/C [49] of 0.18% and a viability, T/C [50] of 0.19%.
In the case of `O=C(c1cc(Cc2n[nH]c(=O)c3ccccc23)ccc1F)N1CCN(C(=O)C2CC2)CC1` + COc1cc2nc(C)nc(NC(C)c3cc(N)cc(C(F)(F)F)c3)c2cc1OC1CCOC1, the IC50 (second compound 0.1 µM) is reported as 8250 nM, the IC50 (second compound 0.316 µM) is reported as 5900 nM and the IC50 (second compound 1 µM) is reported as 8780 nM. It also gave an IC50 (second compound 3.16 µM) of 4490 nM, an IC50 (second compound 10 µM) of 872 nM and a viability, T/C [5] of 107%. It also gave a viability, T/C [26] of 105%, a viability, T/C [31] of 114% and a viability, T/C [32] of 116%. The viability, T/C [33] was 99.1%, the viability, T/C [34] was 40.1% and the viability, T/C [10] was 105%. The viability, T/C [27] was 102%, the viability, T/C [35] was 107% and the viability, T/C [36] was 116%. It also gave a viability, T/C [37] of 67.9%, a viability, T/C [38] of 34.8% and a viability, T/C [15] of 111%. For the same compound, the viability, T/C [28] was 104%, the viability, T/C [39] was 107% and the viability, T/C [40] was 122%. The viability, T/C [41] was 88.2%, the viability, T/C [42] was 45.1% and the viability, T/C [20] was 109%. It also gave a viability, T/C [29] of 98.3%, a viability, T/C [43] of 109% and a viability, T/C [44] of 110%. It also gave a viability, T/C [45] of 61%, a viability, T/C [46] of 25.1% and a viability, T/C [25] of 102%. For the same compound, the viability, T/C [30] was 101%, the viability, T/C [47] was 81.3% and the viability, T/C [48] was 48.4%. It also gave a viability, T/C [49] of 11.5% and a viability, T/C [50] of 10.1%.
